In patent US20220249416A1, “SYNERGISTIC COMBINATIONS OF SYNTHETIC LYSINE ANALOGS, DERIVATIVES, MIMETICS, OR PRODRUGS AND PHARMACEUTICAL AGENTS FOR ENHANCED EFFICACY” (priority 2019, published 2022):

Columns and labels:
[1] = tested on: HO-1, a clinical isolate of HSV-1 that is multiple drug resistant; assay: Viral yields of multiple drug resistant HSV-1 isolate HO-1, plaque assay; format: cell-based, Herpes Simplex Virus Type 1; conditions: 2% tranexamic acid, MOI 5, 24 hpi
HSV-1 = assay: Effect of 2% TA on HSV-1 DNA replication; format: cell-based, Herpes Simplex Virus Type 1; conditions: MOI 0.05 and 0.5
rabbit skin cells = conditions: 48 h
cold sores = assay: Topical tranexamic acid on cold sore outbreaks in human subjects; format: in vivo
HSV Strain 17syn+ = assay: Acyclovir escape mutants after 10 serial passages in rabbit skin cells; format: cell-based, Herpes Simplex Virus; conditions: 10 passages, 50 μM acyclovir alone or with 2% tranexamic acid; plated with 100 μM acyclovir vs. none

SMILES	effect on HO-1 viral yields [1]	replication of HSV DNA (HSV-1)	CC50 (rabbit skin cells) [mM]	time to resolution of cold sore outbreak symptoms (cold sores; 3% (w/v) topically several times a day, three human subjects) [h]	cold sore outbreaks during one year (usual 3 to 5) (cold sores; 3 to 10% (w/v) applied to face daily for approximately one year, one subject)	time to healing of cold sore (cold sores; 5% (w/v) aqueous solution, about 0.25 mL, 5 times, one subject) [h]	outcome of cold sore outbreak (cold sores; 10% (w/v) topically a single time, one subject)	Ratio of Acyclovir Resistant (ACVr) Virus (HSV Strain 17syn+)
NC[C@H]1CC[C@H](C(=O)O)CC1 [tranexamic acid]	effective	significantly reduces the replication of HSV DNA	320	≤ 48	one	≤ 36	the blister was gone and the outbreak had ceased	
Nc1nc2c(ncn2COCCO)c(=O)[nH]1 [Acyclovir, acyclovir]								0.0044
